Laboratory results taken from patent publication US6060604A, “Pharmaceutical compounds comprising polyamines substituted with electron-affinic groups” (priority 1996, dated 2000).

How the values were obtained:
[1] = tested on: Chinese hamster ovary (CHO) cells; assay: in vitro radiosensitization of hypoxic CHO cells, colony formation (Table 1); assay type: cell-based; conditions: drug dose 0.5 mM
Experimental: Cells were plated and allowed to attach on glass petri dishes for 3 h, then the media was replaced with 5 ml of Hank's balanced salt solution (HBSS) with or without drugs. To induce cell hypoxia, the dishes were placed at room temperature into sealed aluminum chambers (8 dishes/chamber). […] This procedure was repeated 4 times with 5 min holding periods under positive gas pressure between evacuations. After 1 h, when the cells were severely hypoxic, the chambers were placed in 37° C. water bath for 1 hr. For oxic treatment groups, cells were placed in 37° C. incubators for 2 h with 5 ml of HBSS (±drugs). The chambers were placed on a rotating table and exposed to an X-ray beam generated by a General Electric Maxitron 300 therapy machine operated at 250 kVp and 20 mA (HVL 20 mm Al filter; dose rate at 2 Gy/min). After irradiation, cells were rinsed with HBSS, and covered with fresh media. Cells were cultured for 7 days in a 37° C. incubator. The resulting cell colonies were stained and counted.

[2] = tested on: viral infections; cutaneous inflammation; eye disorders; conditions: cited from earlier work
[3] = tested on: mice; conditions: reported value for metro; cited from earlier work
[4] = in vitro toxicity on hypoxic CHO cells, colony formation; assay type: cell-based, Chinese hamster; conditions: hamster, cho cells, 10 mM, 12 hours at 37° C., read-out: reduction in colony formation
Experimental: Subsequently, hypoxic CHO cells were incubated with 0.2 mM DATM or 10 mM metro for 12 hours at 37° C.

[5] = tested on: hypoxic CHO cells; assay: radiosensitizing hypoxic CHO cells, drugs given 2 hours at 4° C.; assay type: cell-based, Chinese hamster
[6] = tested on: CHO cells; assay: radiosensitization potency on hypoxic CHO cells at 20% survival, single X ray dose 8 Gy (Table 2); assay type: cell-based, Chinese hamster; conditions: Cricetulus griseus, CHO; hypoxic, single X ray dose of 8 Gy; read-out: drug molarity required to reduce cell survival to 20% of the untreated control value
Experimental: Cells were plated and allowed to attach on glass petri dishes for 3 h, then the media was replaced with 5 ml of Hank's balanced salt solution (HBSS) with or without drugs. To induce cell hypoxia, the dishes were placed at room temperature into sealed aluminum chambers (8 dishes/chamber). The chambers were degassed by pumping, and then back-filled with 95% N2 and 5% CO2. This procedure was repeated 4 times with 5 min holding periods under positive gas pressure between evacuations. After 1 h, when the cells were severely hypoxic, the chambers were placed in 37° C. water bath for 1 hr. For oxic treatment groups, cells were placed in 37° C. incubators for 2 h with 5 ml of HBSS (±drugs). The chambers were placed on a rotating table and exposed to an X-ray beam generated by a General Electric Maxitron 300 therapy machine operated at 250 kVp and 20 mA (HVL 20 mm Al filter; dose rate at 2 Gy/min). After irradiation, cells were rinsed with HBSS, and covered with fresh media. Cells were cultured for 7 days in a 37° C. incubator. The resulting cell colonies were stained and counted.
In the experiment shown in Table 2 hypoxic CHO cells were irradiated with a single X ray dose of 8 Gy, with or without drugs.

[7] = in vivo; conditions: mouse, po
[8] = cited from earlier work

Cc1ncc([N+](=O)[O-])n1CCO [metronidazole, 1-(2-hydroxyethyl)-2-methyl-5-nitroimidazole]
Do [1]: 3.3 Gy | treatment of cutaneous inflammation due to dermatosis such as eczema, ulcers, acne, and rosacea [2]: effective | treatment of eye disorders such as blepharoconjunctivitis and meibomian gland dysfunctions [2]: effective | treatment of viral infections such as measles, herpes, and viral diverticulitis [2]: effective | LD50 [3]: about 3.3 g/kg | cytotoxicity at 12 h, 10000 µM [4]: 95% | radiosensitizing effectiveness, 0.2 mM DATM vs 10 mM metro [5]: equally effective | IC80 [6]: 10 mM | LD50 [7]: ~4000 mg/kg | toxicity at therapeutic levels ([8]; as radiosensitizers): highly toxic at therapeutic levels | photosensitization ([8]; dermatological use): photosensitizer
